From patent publication US6881719B2, “β-turn peptidomimetic cyclic compounds” (McGill University, priority 2000, dated 2005)

How the values were obtained:
[1] = test system: embryonic rat DRG primary neuronal cultures; assay: Cell survival (MTT), primary DRG cultures; assay type: cell-based; conditions: 8 days;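 on % Protection: 100% equals survival with optimal NGF at 1 nM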
Protocol: Fetal rat DRG primary cultures were established from Sprague Dawley day 17 rat embryos. All ganglia were dissected and dissociated first enzymatically with trypsin and then mechanically. Dissociated cells were cultured (10^5 cells/well) in 96 well plates pre-coated with collagen, and grown for a total of 8 days in Neuro Basal Medium containing N2 supplement (GIBCO, Toronto), antibiotics, and L-glutamine. These DRG cultures are ˜85% TrkA-expressing and are heavily dependent on TrkA signals for survival.
Primary DRG cultures: After a total of 8 days of culture with the indicated test or control ligands, cell survival were studied using the 3(4,5-Dimethylthiazolyl-2)-2,5-diphenyl tetrazolium bromide colorimetric (MTT) assay, and by microscopic observation.
(§1) Cell lines: 5,000 cells/well in protein-free media (PFHM-II, GIBCO, Toronto) containing 0.2% bovine serum albumin (BSA) (Crystalline fraction V, Sigma, St. Louis, Mo.) were seeded in 96 well plates (Falcon, Mississauga, Ontario). The cultures were untreated, or treated with the indicated test or control ligands. Cell viability was quantitated using the MTT assay after 56-72 hours of culture. […] The OD of untreated cells were subtracted. The higher optical density of untreated primary cultures is likely due to cellular heterogeneity and to endogenous production of limiting amounts of growth factors.

4-3.6 cells (p75+TrkA+) = assay: Cell survival (MTT), 4-3.6 cells; assay type: cell-based, rat; conditions: 72 hours;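 on % Protection: 100% equals survival with optimal NGF at 1 nM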
Excerpt: (§2) The 4-3.6 cells are B104 cells stably transfected with human trkA cDNA, and express equal levels of p75 and TrkA (TrkA+ p75+). For screening agents that activate or antagonize TrkC receptors, NIH3T3 fibroblasts were stably transfected with human TrkC cDNA. These cells respond to the ligand NT-3. For screening agents that activate or antagonize TrkA receptors, NIH3T3 fibroblasts were stably transfected with human TrkA cDNA. These cells respond to the ligand NGF.
as §1

[2] = target: T1, TrkA•TrkA homodimers (4-3.6 cells) (Homo sapiens, UniProt P04629); assay: Detection of putative TrkA•TrkA homodimers by cross-linking and western blot; assay type: cell-based
T1 construct: expressed in transfected cells
T1 sequence (P04629 33-796): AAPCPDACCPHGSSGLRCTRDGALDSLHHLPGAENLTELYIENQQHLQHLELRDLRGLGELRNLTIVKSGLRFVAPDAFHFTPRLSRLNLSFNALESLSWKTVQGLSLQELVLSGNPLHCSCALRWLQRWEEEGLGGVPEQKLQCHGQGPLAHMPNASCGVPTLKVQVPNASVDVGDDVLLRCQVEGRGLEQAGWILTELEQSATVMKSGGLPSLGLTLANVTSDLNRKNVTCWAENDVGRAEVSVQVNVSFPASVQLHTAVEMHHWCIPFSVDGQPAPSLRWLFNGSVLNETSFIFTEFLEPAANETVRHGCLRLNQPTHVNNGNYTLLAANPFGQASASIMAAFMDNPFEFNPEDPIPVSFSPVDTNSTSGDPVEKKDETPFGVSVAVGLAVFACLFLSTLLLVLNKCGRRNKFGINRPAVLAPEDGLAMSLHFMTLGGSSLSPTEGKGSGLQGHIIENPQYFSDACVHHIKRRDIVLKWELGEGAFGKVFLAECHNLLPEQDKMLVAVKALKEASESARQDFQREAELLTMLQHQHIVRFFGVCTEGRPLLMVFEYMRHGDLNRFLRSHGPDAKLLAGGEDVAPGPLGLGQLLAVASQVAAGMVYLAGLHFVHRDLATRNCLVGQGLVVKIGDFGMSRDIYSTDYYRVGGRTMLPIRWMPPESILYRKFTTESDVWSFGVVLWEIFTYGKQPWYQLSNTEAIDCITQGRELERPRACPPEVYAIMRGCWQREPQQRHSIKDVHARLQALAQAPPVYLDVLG
Protocol: In FIG. 2, 4-3.6 cells were exposed to TrkA ligands as per Table 5 (lanes 1-4) or no ligand (lanes 5 and 6), and chemically cross-linked (lanes 1-5) or not cross-linked (lane 6). Cell lysates were western blotted with anti-TrkA 203 antisera.
Live 4-3.6 cells suspended in PBS were treated with the indicated ligand(s) for 40 min at 4° C. to allow binding. Cells were then washed in PBS, cross-linked with the membrane impermeable cross-linker disuccinimidyl suberate (DSS, Pierce; 1 mM DSS, 15 minutes at 15° C.). Unreacted DSS was quenched with 5 mM ammonium acetate. Then cells were either lysed directly in SDS sample buffer (whole cell lysate), or lysed in non-ionic detergent NP-40 and immunoprecipitated with anti-Trk or anti-p75 antibodies as described (LeSauteur et al., 1996). […] For western blot analysis, equal amounts of protein or cell equivalents for each sample were resolved in a 5-10% SDS-PAGE gradient, transferred to nitrocellulose membranes (Xymotech Biosystems, Montréal, Qc), and blotted with anti-Trk polyclonal antibody 203 that recognizes the intracellular domain of Trk. Blots were visualized using the enhanced chemiluminescence (ECL) system (New England Nuclear, Boston, Mass.).

[3] = target: T2, NIH3T3 fibroblasts expressing TrkA (Homo sapiens, UniProt P04629); assay: Cell survival (MTT), NIH-TrkA; assay type: cell-based; conditions: for NIH-TrkA % Protection: 72 hours;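 on NIH-TrkA % Protection: 100% equals survival with optimal NGF at 1 nM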
T2 construct: expressed in transfected cells; host or cells: NIH3T3 fibroblasts
T2 sequence (P04629 33-796): as above
Excerpt: The 4-3.6 cells are B104 cells stably transfected with human trkA cDNA, and express equal levels of p75 and TrkA (TrkA+ p75+). For screening agents that activate or antagonize TrkC receptors, NIH3T3 fibroblasts were stably transfected with human TrkC cDNA. […] For screening agents that activate or antagonize TrkA receptors, NIH3T3 fibroblasts were stably transfected with human TrkA cDNA.
Cell lines: 5,000 cells/well in protein-free media (PFHM-II, GIBCO, Toronto) containing 0.2% bovine serum albumin (BSA) (Crystalline fraction V, Sigma, St. Louis, Mo.) were seeded in 96 well plates (Falcon, Mississauga, Ontario). The cultures were untreated, or treated with the indicated test or control ligands. Cell viability was quantitated using the MTT assay after 56-72 hours of culture. […] The OD of untreated cells were subtracted.

B104 cells = assay: Cell survival control, B104 cells; assay type: cell-based, rat
Excerpt: as §2, §1

wild type HEK293 cells = assay: Cell survival control, wild type HEK293 cells; assay type: cell-based
Protocol: as §1

[4] = Enhancement of trophic effect of EGF; assay type: cell-based
TrkA = TrkA (Homo sapiens, UniProt P04629); assay: Inhibition of agonistic activity of mAb 5C3; assay type: cell-based
Sequence of TrkA (P04629 33-796): as above

NCCCC[C@@H]1NC(=O)[C@H](CCC(=O)O)NC(=O)c2cc([N+](=O)[O-])ccc2OCCC(C(=O)NCC(=O)O)NC1=O (stereo partly drawn) [D3, EKHse-G-OH]
% Protection ([1]; compound 10 μM + NGF 20 pM): 48 ± 3%
Optical Density ([1]; compound 10 μM + NGF 20 pM): 471 ± 28
% Protection ([1]; compound 10 μM + NGF 500 pM): 84 ± 3%
Optical Density ([1]; compound 10 μM + NGF 500 pM): 603 ± 26
% Protection ([1]; compound 10 μM + NGF 1 nM): 120 ± 7%
Optical Density ([1]; compound 10 μM + NGF 1 nM): 977 ± 38
% Protection ([1]; compound 10 μM alone): 38 ± 2%
Optical Density ([1]; compound 10 μM alone): 405 ± 22
% Protection (4-3.6 cells (p75+TrkA+); compound 10 μM + 10 pM NGF): 55 ± 3%
Optical Density (4-3.6 cells (p75+TrkA+); compound 10 μM + 10 pM NGF): 255 ± 14
% Protection (4-3.6 cells (p75+TrkA+); compound 10 μM alone): 8 ± 2%
Optical Density (4-3.6 cells (p75+TrkA+); compound 10 μM alone): 95 ± 9
intensity of the Mr 300 kDa band (TrkA dimers), standardized to 1 nM NGF (100%) ([2]; 10 pM NGF + 10 μM D3): 77±7%
intensity of the Mr 300 kDa band (TrkA dimers), standardized to 1 nM NGF (100%) ([2]; 10 μM D3 alone): 21±4%
enhancement of NGF protection ([3]; NIH3T3 cells stably transfected with TrkA cDNA): enhanced NGF protection
NIH-TrkA % Protection ([3]; agent 10 μM + 10 pM NGF): 51 ± 5%
NIH-TrkA % Protection ([3]; agent 10 μM alone): 8 ± 4%
protection from apoptosis (B104 cells): neither D3 nor NGF protected
protection from apoptosis (wild type HEK293 cells): neither D3 nor NGF protected
enhancement of the trophic effect of EGF [4]: did not enhance
inhibition of optimal agonistic activity of mAb 5C3 (TrkA): inhibited by D3 in a dose-dependent manner
